Reference: patent US20220401414A1, “TREATMENT AND PREVENTION OF A NEURODEGENERATIVE DISORDER” (Inflazome Limited, priority 2019, published 2022)

What was measured:
[1] = test system: 6-OHDA mouse model of Parkinson's disease; test: Studies C and D: LC-MS/MS quantification of striatal dopamine and metabolites in the 6-OHDA mouse model; format: in vivo, C57BL6 mice; conditions: 28 days after the 6-OHDA lesion
Protocol: To determine the oral efficacy of the compound of formula (I) in the 6-OHDA mouse model of Parkinson's disease.
8-week-old C57BL6 male mice (obtained from ARC, Perth, Australia) were housed under a 12-h light cycle in a SPF climate-controlled facility with food and water provided ad libitum for two weeks prior to study initiation. For treatment with the compound of formula (I), mice were dosed via oral gavage. Ten (10) mice in each group were dosed at 3 or 1 mg/kg, starting the day before (24 hr prior) stereotaxic surgery, and then QD until sacrifice.
6-OHDA (Sigma) was prepared immediately prior to surgeries. A sterile saline (0.9%) solution containing ascorbic acid (0.2%) was used as the vehicle to dissolve 6-OHDA. […]
Mice were sacrificed 1 week after the amphetamine test (day 28) and striatal tissue was micro-dissected, weighed and snap-frozen at −80° C. […] Striatal dopamine (DA) and its metabolites (DOPAC and HVA) were quantified in their stable derivative 3o form in the presence of internal standard 3,4-dihydroxybenzylamine (DHBA) using highly sensitive liquid chromatography-tandem mass spectrometry (LC-MS/MS) as described previously (Park et al., Biol. Pharm. Bull., 2013, vol. 36, pp. 252-8). […] For quantitation, one transition per analyte was monitored and two transitions per analyte were monitored for qualitative purposes. […]

[2] = test system: PFF-Synuclein model of Parkinson's disease; test: Study H: rotarod test in the PFF-Synuclein mouse model; format: in vivo, C57BL6 mice; conditions: 4, 6, 8 and 10 months
Text: To determine the oral efficacy of the compound of formula (I) in a chronic progressive model of Parkinson's disease (PD), the preformed fibrils (PFF) mouse model, using a prophylactic and therapeutic dosing schedule.
8-week-old C57BL6 male mice (obtained from ARC, Perth, Australia) were housed under a 12-h light cycle in a SPF climate-controlled facility with food and water provided ad libitum for two weeks prior to study initiation. The compound of formula (I) (or water alone for control animals) was administrated to mice in drinking water at 0.3 mg/ml. Animals were separated into the groups described in Table 9, with ten animals initiated in each cohort. […]
Recombinant human a-synuclein was obtained from rPeptide Inc., and in vitro fibril generation was performed with a final concentration of 2 mg/ml in phosphate-buffered saline (PBS) by incubation at 37° C. with agitation in an orbital mixer (400 rpm) for 7 days with daily cycles of sonication used to break down fibrillar aggregates as outlined in previously published reports (see Luk et al., Science, 2012, vol. 338(6109), pp. 949-53; and Zhang et al., Methods Mol. Biol., 2019, vol. 1948, pp. 45-57, which are incorporated in their entirety herein by reference). The generation of fibrillar α-synuclein species was confirmed by transmission electron microscopy and Thioflavin T fluorescence prior to use. […]

## CC(C)n1ccc(S(=O)(=O)NC(=O)Nc2c3c(cc4c2CCC4)CCC3)n1 [compound of formula (I)]
[1]; Study C, 3 mg/kg oral QD
  striatal dopamine (with metabolites DOPAC and HVA): significantly protected against the loss of dopamine
[1]; Study D, 3 mg/kg oral daily
  striatal dopamine: significantly protected against the loss of dopamine with improved efficacy compared to MCC950
[2]; prophylactic: 0.3 mg/ml in drinking water from 24 h before PFF injection
  performance on the rotarod: improved performance on the rotarod
[2]; therapeutic: 0.3 mg/ml in drinking water from 4 months after PFF injection
  performance on the rotarod: improved performance on the rotarod
